Experiments:
Format in all cases: cell-based
Conditions in all cases: U-87MG ATCC
[1] = biological target: Prolyl endopeptidase FAP (Homo sapiens) (UniProt Q12884); assay: Inhibition of FAP in human U87MG cells using Suc-Gly-Pro-AMC as substrate at 1 uM incubated for 90 mins by fluorescence based assay relative to control
[2] = biological target: Prolyl endopeptidase FAP (Homo sapiens) (UniProt Q12884); assay: Inhibition of FAP in human U87MG cells using Z-Gly-Pro-AMC as substrate at 1 uM incubated for 90 mins by fluorescence based assay relative to control
[3] = biological target: Prolyl endopeptidase FAP (Homo sapiens) (UniProt Q12884); assay: Inhibition of FAP in human U87MG cells using Gly-Pro-AMC as substrate at 1 uM incubated for 90 mins by fluorescence based assay relative to control

Prolyl endopeptidase FAP (Homo sapiens), sequence (Q12884 whole entry): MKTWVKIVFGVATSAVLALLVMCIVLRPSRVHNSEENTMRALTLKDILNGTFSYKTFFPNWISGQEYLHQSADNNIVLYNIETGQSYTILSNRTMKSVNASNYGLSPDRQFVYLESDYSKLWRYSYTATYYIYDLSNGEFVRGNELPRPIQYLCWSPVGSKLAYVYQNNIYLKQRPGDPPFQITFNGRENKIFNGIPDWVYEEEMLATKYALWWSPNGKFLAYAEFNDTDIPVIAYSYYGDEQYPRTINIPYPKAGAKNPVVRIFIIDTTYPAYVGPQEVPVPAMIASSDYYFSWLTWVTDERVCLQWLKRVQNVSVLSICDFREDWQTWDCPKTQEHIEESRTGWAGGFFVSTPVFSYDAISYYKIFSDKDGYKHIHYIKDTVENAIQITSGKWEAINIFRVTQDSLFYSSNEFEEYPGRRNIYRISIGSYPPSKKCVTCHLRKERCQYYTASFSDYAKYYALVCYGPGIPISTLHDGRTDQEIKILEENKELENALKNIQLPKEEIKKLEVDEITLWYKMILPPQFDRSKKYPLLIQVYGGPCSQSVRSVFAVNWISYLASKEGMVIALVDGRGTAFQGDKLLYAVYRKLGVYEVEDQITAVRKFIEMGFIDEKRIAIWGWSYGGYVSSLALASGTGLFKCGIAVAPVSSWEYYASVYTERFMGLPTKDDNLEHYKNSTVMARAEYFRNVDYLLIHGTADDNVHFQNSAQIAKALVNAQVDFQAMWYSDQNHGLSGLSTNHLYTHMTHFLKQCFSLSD

- inhibition [1]: 91.9%
- inhibition [2]: 30.7%
- inhibition [3]: 17.5%
Structure (SMILES): N#C[C@@H]1CC(F)(F)CN1C(=O)CNC(=O)c1ccnc2ccccc12

Reference: ChEMBL document CHEMBL4622911, “A cell-based fluorescent assay for FAP inhibitor discovery” (Bioorg Med Chem Lett, 2020)
